Test results published in patent US6437153B1, “Process for preparing 3-(1-hydroxyphenyl-1-alkoximinomethyl)dioxazines” (Bayer Aktiengesellschaft, priority 1996, dated 2002).
Where two headings read alike, the source gives them in different places.

Assay: logP determined by HPLC
Type: physicochemical
[1] = preparation examples, where two values are given they are the stereoisomers of the product mixture, read-out: HPLC: logP
[2] = preparation examples, where two values are given they are the stereoisomers of the product mixture

Compound | chromatographic logP [1] | HPLC: logP [2] | chromatographic logP (E isomer, Example 2 product, read-out: HPLC: logP (E isomer)) | chromatographic logP (HPLC, preparation examples, where two values are given they are the stereoisomers of the product mixture, read-out: HPLC: logP)
CON=C1COc2ccc(C)cc21 [(VI-2), 5-Methylbenzofuran-3-one O-methyl-oxime] | 2.88 | – | – | –
CON=C1C(=NOCCO)Oc2ccccc21 [Compound (II-1), benzofuran-2,3-dione 2-[O-(2-hydroxy-ethyl)-oxime]3-(O-methyl-oxime)] | 1.65 | 1.79 | – | –
CO/N=C(/C1=NOCCO1)c1ccccc1O [Compound (I-1), E-(5,6-dihydro-[1,4,2]dioxazin-3-yl)-(2-hydroxy-phenyl)-methanone O-methyl-oxime] | – | – | 1.24 | 1.22
CON=C1C(=NO)Oc2ccccc21 [Compound (III-1), benzofuran-2,3-dione 3-(O-methyl-oxime) 2-oxime] | 1.56 | 1.72 | – | –
CON=C(C[N+](=O)[O-])c1ccccc1O [Compound (V-1), 1-(2-hydroxyphenyl)-2-nitro-ethanone O-methyl-oxime] | 1.87 | – | – | –
